Values quoted from earlier work, collected in US5659037A, “Process for preparing chiral tetracyclic dopaminergic compounds” (Abbott Laboratories, priority 1995, dated 1997).

Key:
[1] = test system: dopamine D1; conditions: Nichols U.S. Pat. No. 5,047,536; WO 93/24462; Brewster et al. (1990)
[2] = test system: adenylate cyclase; conditions: Knoerzer et al., J. Med. Chem., 37:2453-60 (1994)
[3] = Seeman, Pharmacol. Rev. 32:2:229 (1980)

Oc1cc2c(cc1O)[C@@H]1c3ccccc3CN[C@H]1CC2 (relative stereo) [dihydrexidine, trans-10,11-dihydroxy-5,6,6a,7,8,12b-hexahydrobenzo[a]phenanthridine]
dopamine D1 agonist activity [1]: potent and selective dopamine D1 agonists

Oc1cc2c(cc1O)[C@@H]1c3ccccc3CN[C@H]1CC2 [6aS,12bR-(-)-isomer]
activity in an adenylate cyclase assay [2]: inactive

Cc1ccc2c(c1)[C@@H]1c3cc(O)c(O)cc3CC[C@H]1NC2 (relative stereo) [2-methyl derivative]
dopamine D1 agonist activity [1]: potent and selective dopamine D1 agonists

NC1CCc2cc(O)c(O)cc2C1 (stereo not shown) [ADTN, 2-amino-6,7-dihydroxy-1,2,3,4-tetrahydronaphthalene]
dopamine agonist activity [3]: greatest activity in its chiral (R)-(+)-isomeric form
